According to publication PMC7098370 (Toxicological Sciences, 2020):
Read-outs that look alike come from different tables or passages of the source. Marks after values point to notes of the source that are not given here.

What was measured:
[1] = test system: female mice; settings: 15-day exposure, ref Finley et al. (2012), Shrivastava et al., 1996; cited from earlier work
[2] = 0.08–0.19 mg Co/kg bw/day, 3-month, ref Tvermoes et al., 2014, cited from earlier work
[3] = oral administration; ref Kirchgessner et al., 1994; cited from earlier work
[4] = test system: rats; settings: oral, ref Speijers et al. (1982), cited from earlier work
[5] = test system: rats; settings: cited from earlier work
[6] = test system: Crl:CD(SD) rats; assay: Subchronic 90-day oral RDT study with reproductive toxicity screening; assay type: in vivo, rat; settings: for erythroid hyperplasia in the bone marrow, incidence: 90 days; for body weight at autopsy reduced: 90-day exposure; for dose level from which hematological parameters were significantly affected: 90-day oral
[7] = test system: children with sickle cell anemia; settings: 1.4–1.8 mg Co/kg/day, ref Gross et al., 1955, Kriss et al.; cited from earlier work
[8] = Bioelution in simulated intestinal fluid; settings: simulated intestinal fluid pH 7.4, 2 h
[9] = Plasma toxicokinetic study; assay type: in vivo, rat; settings: for C max / K el / t 1/2 / Bioavailability (absolute): 10 mg test item/kg PO (2.48 mg Co/kg); for Bioavailability (absolute): vs CoCl2 IV
[10] = Target organ study: tissue distribution of cobalt after 90-day oral exposure; assay type: in vivo, rat; settings: 90-day exposure to 7.44 mg Co/kg bw/day
[11] = Bioelution in simulated gastric fluid
[12] = Mass balance study: urinary and fecal Co excretion after single oral gavage; assay type: in vivo, rat; settings: single oral bolus 10 mg/kg bw (2.48 mg Co/kg bw), 72 h
[13] = listed as Co Dichloride Hexahydrate
[14] = cobalt dichloride hexahydrate vs tricobalt tetraoxide
[15] = females, 0.74 mg Co/kg bw/day, end of 90-day oral exposure, experimental group
[16] = females, 2.48 mg Co/kg bw/day, end of 90-day oral exposure, experimental group
[17] = females, 7.44 mg Co/kg bw/day, end of 90-day oral exposure, experimental group
[18] = females, 7.44 mg Co/kg bw/day, recovery group, end of 28-day recovery period
[19] = females, 7.44 mg Co/kg bw/day, recovery group, end of 90-day oral exposure
[20] = males, 0.74 mg Co/kg bw/day, end of 90-day oral exposure, experimental group
[21] = males, 2.48 mg Co/kg bw/day, end of 90-day oral exposure, experimental group
[22] = males, 7.44 mg Co/kg bw/day, end of 90-day oral exposure, experimental group
[23] = males, 7.44 mg Co/kg bw/day, recovery group, end of 28-day recovery period
[24] = males, 7.44 mg Co/kg bw/day, recovery group, end of 90-day oral exposure

O.O.O.O.O.O.[Cl-].[Cl-].[Co+2] [CoCl2, Cobalt dichloride hexahydrate]
dose at which histopathological changes in the thyroid were reported [1]: approximately 50 mg Co/kg bw/day
absorption of Co ([2]; men): 20%
absorption of Co ([2]; women): 45%
absorbed Co excreted in the feces via the bile [3]: around 1%
Acute LD50 (mg Co/kg bw) [4]: 190 mg Co/kg bw
Acute LD50 (mg substance/kg bw) [4]: below 1000 mg substance/kg bw
Acute LD50 (mg substance/kg bw) [4, 13]: 766 [Speijers et al. (1982)] mg substance/kg bw
dose at which adverse cardiac effects were observed ([5]; male SD rats, 3-month exposure, ref Domingo et al., 1984): 32 mg Co/kg bw/day
daily dose at which hematological effects were reported ([5]; rats, 7 days, ref Shrivastava et al., 2010): 12.5 mg Co/kg/day
erythroid hyperplasia in the bone marrow, incidence ([6]; 2.48 mg Co/kg bw/day, females): 7/10
erythroid hyperplasia in the bone marrow, incidence ([6]; 2.48 mg Co/kg bw/day, males): 4/10
erythroid hyperplasia in the bone marrow, incidence ([6]; 7.44 mg Co/kg bw/day, both sexes): 7/10
premature deaths ([6]; 90-day oral gavage, all doses): None of the animals treated with any dose of CoCl2 died prematurely
LOAEL (systemic) ([6]; 90-day oral gavage, rats): 2.5 mg Co/kg bw/day
NOAEL (reproductive) ([6]; 90-day oral gavage, rats): > 7.5 mg Co/kg bw/day
difference in RDT lowest observed adverse effect level (factor) [6, 14]: 310
HGB, %Diff vs control [6, 15]: +0.9%
HGB, mean [6, 15]: 9.62 mmol/L
RBC, %Diff vs control [6, 15]: +0.6%
RBC, mean [6, 15]: 8.38 ×10E6/µl
Reti, %Diff vs control [6, 15]: −18.9%
Reti, mean [6, 15]: 12 %0 of RBC
HGB, %Diff vs control [6, 16]: +0.3%
HGB, mean [6, 16]: 9.56 mmol/L
RBC, %Diff vs control [6, 16]: −2.6%
RBC, mean [6, 16]: 8.11 ×10E6/µl
Reti, %Diff vs control [6, 16]: +33.1%
Reti, mean [6, 16]: 19.7 %0 of RBC
body weight at autopsy reduced ([6]; females, 7.44 mg Co/kg bw/day): 9%
HGB, %Diff vs control [6, 17]: +13.4%
HGB, mean [6, 17]: 10.81 mmol/L
RBC, %Diff vs control [6, 17]: +9.8%
RBC, mean [6, 17]: 9.15 ×10E6/µl
Reti, %Diff vs control [6, 17]: +4.1%
Reti, mean [6, 17]: 15.4 %0 of RBC
HCT, mean [6, 18]: • 45.02 • .841%
HGB, mean [6, 18]: • 9.56 • .936 mmol/l
RBC, mean [6, 18]: • 8.01 • .948 ×10E6/µl
Reti, mean [6, 18]: • 15 • .232 %0 of RBC
HCT, mean [6, 19]: • 52.3 ^** • .0025%
HGB, mean [6, 19]: • 11.1 ^** • .0017 mmol/l
RBC, mean [6, 19]: • 9.648 ^* • .030 ×10E6/µl
Reti, mean [6, 19]: • 15.6 • .933 %0 of RBC
body weight reduced at the end of the 4-week recovery period ([6]; females, 7.44 mg Co/kg bw/day, test day 118): 13%
dose level from which hematological parameters were significantly affected ([6]; females): 7.44 mg/kg bw/day
changes in hematological parameters compared with control ([6]; male rats, 90-day exposure at 7.44 mg Co/kg bw/day): up to 30%
HCT, %Diff vs control [6, 20]: +1.2%
HCT, mean [6, 20]: 50.51%
HGB, %Diff vs control [6, 20]: +1.4%
HGB, mean [6, 20]: 10.50 mmol/L
PLT, %Diff vs control [6, 20]: −13.5%
PLT, mean [6, 20]: 793.6 ×10E3/µl
RBC, %Diff vs control [6, 20]: −1.4%
RBC, mean [6, 20]: 9.33 ×10E6/µl
Reti, %Diff vs control [6, 20]: +7.8%
Reti, mean [6, 20]: 15.2 %0 of RBC
HCT, %Diff vs control [6, 21]: +10.3%
HCT, mean [6, 21]: 55.07%
HGB, %Diff vs control [6, 21]: +10.7%
HGB, mean [6, 21]: 11.46 mmol/L
PLT, %Diff vs control [6, 21]: −13.9%
PLT, mean [6, 21]: 789.2 ×10E3/µl
RBC, %Diff vs control [6, 21]: +9.2%
RBC, mean [6, 21]: 10.33 ×10E6/µl
Reti, %Diff vs control [6, 21]: −23.4%
Reti, mean [6, 21]: 10.8 %0 of RBC
body weight at autopsy reduced ([6]; males, 7.44 mg Co/kg bw/day): 11%
HCT, %Diff vs control [6, 22]: +24.2%
HCT, mean [6, 22]: 61.98%
HGB, %Diff vs control [6, 22]: +25.6%
HGB, mean [6, 22]: 13.00 mmol/L
PLT, %Diff vs control [6, 22]: −30.5%
PLT, mean [6, 22]: 637.1 ×10E3/µl
RBC, %Diff vs control [6, 22]: +18.9%
RBC, mean [6, 22]: 11.25 ×10E6/µl
Reti, %Diff vs control [6, 22]: −25.5%
Reti, mean [6, 22]: 10.5 %0 of RBC
HCT, mean [6, 23]: • 49.58 • .334%
HGB, mean [6, 23]: • 10.64 • .087 mmol/l
PLT, mean [6, 23]: • 917.6 • .551 ×10E3/µl
RBC, mean [6, 23]: • 9.086 • .373 ×10E6/µl
Reti, mean [6, 23]: • 15.1 • .0544 %0 of RBC
HCT, mean [6, 24]: • 58.68** • .002%
HGB, mean [6, 24]: • 12.74** • .0015 mmol/l
PLT, mean [6, 24]: • 727.2 • .223 ×10E3/µl
RBC, mean [6, 24]: • 10.89** • .0022 ×10E6/µl
Reti, mean [6, 24]: • 15.6 • .400 %0 of RBC
dose level from which hematological parameters were significantly affected ([6]; males): 2.48 mg Co/kg bw/day
thyroid effects [7]: decrease in iodine uptake and the development of goiters
Bioelution of Co in intestinal fluid (% release) [8]: 79 (2 h) % release
Bioelution of Co in intestinal fluid / cobalt release (µg Co/g sample) [8, 13]: 198 700 (2 h) µg Co/g sample
C max ([9]; females): 2.61 ng/mL
K el ([9]; females): 0.0508 h⁻¹
t 1/2 ([9]; females): 13.7 h
Bioavailability (absolute) ([9]; females): ~12%
Bioavailability (absolute) ([9]; females, listed as CoCl2.6H2O): 11.7 (absolute) %
C max ([9]; males): 2.51 ng/mL
K el ([9]; males): 0.0489 h⁻¹
t 1/2 ([9]; males): 14.2 h
Bioavailability (absolute) ([9]; males): approximately 7%
Bioavailability (absolute) ([9]; males, listed as CoCl2.6H2O): 6.81 (absolute) %
Bioavailability calculated from AUC as % of CoCl2 IV AUC, average of m + f: absolute bioavailability ([9]; oral, rats, average of males and females): Absolute bioavailability 9.3%
oral bioavailability ([9]; single oral bolus, rats, males and females not distinguished): ≤ 12%
elevation of tissue Co concentration vs control, most tissues and organs [10]: around 20 fold
difference in in vitro bioaccessibility (factor) [11, 14]: 440
Bioelution of Co in gastric fluid (% release), 2 h ([11]; simulated gastric fluid pH 1.5, 2 h, 37°C): 98.5 % release
Fecal Excretion (%) ([12]; females): 98.5 % of Co applied
Sum of Urinary and Fecal Excretion (%) ([12]; females): 110.7 % of Co applied
Urinary Excretion (%) ([12]; females): 12.2 % of Co applied
Fecal Excretion (%) ([12]; males): 82.4 % of Co applied
Sum of Urinary and Fecal Excretion (%) ([12]; males): 99.5 % of Co applied
Urinary Excretion (%) ([12]; males): 17.1 % of Co applied
